Source: patent US5843889A, “Glycopeptide antibiotic derivatives” (Eli Lilly and Company, priority 1997, dated 1998)
In brackets after ≈: the same amount, converted by molar mass.

Columns and labels:
Format in all cases: cell-based
[1] = system: Staphylococcus aureus S13E
Experimental: (§1) The MIC's were determined using a standard broth micro-dilution assay.

[2] = system: Staphylococcus aureus SA1199B
Experimental: as §1

[3] = system: Entercoccus faecalis 2041; assay: MIC, standard broth micro-dilution assay
Experimental: (§2) The formula I compounds have in vitro and in vivo activity against Gram-positive pathogenic bacteria. The MIC's were determined using a standard broth micro-dilution assay.

[4] = system: Entercoccus faecalis 276; assay: MIC, standard broth micro-dilution assay
Experimental: as §2

[5] = system: Entercoccus gallinarum 245; assay: MIC, standard broth micro-dilution assay
Experimental: as §2

[6] = system: Entercoccus faecium 180-1; assay: MIC, standard broth micro-dilution assay
Experimental: as §1

[7] = system: Entercoccus faecium 180; assay: MIC, standard broth micro-dilution assay
Experimental: as §1

[8] = system: Escherichia coli EC14; assay: MIC, standard broth micro-dilution assay
Experimental: as §1

[9] = system: Haemophilus influenzae RD; assay: MIC, standard broth micro-dilution assay
Experimental: as §1

[10] = system: Staphylococcus aureus 446; assay: MIC, standard broth micro-dilution assay
Experimental: as §1

[11] = system: Staphylococcus aureus 447; assay: MIC, standard broth micro-dilution assay
Experimental: as §1

[12] = system: Staphylococcus aureus 489; assay: MIC, standard broth micro-dilution assay
Experimental: as §1

[13] = system: Staphylococcus aureus SA1199A; assay: MIC, standard broth micro-dilution assay
Experimental: as §1

[14] = system: Staphylococcus aureus SA1199; assay: MIC, standard broth micro-dilution assay
Experimental: as §1

[15] = system: Staphylococcus aureus X400; assay: MIC, standard broth micro-dilution assay
Experimental: as §1

[16] = system: Staphylococcus aureus X778; assay: MIC, standard broth micro-dilution assay
Experimental: as §1

[17] = system: Staphylococcus epidermidis 270; assay: MIC, standard broth micro-dilution assay
Experimental: as §1

[18] = system: Staphylococcus haemolyticus 105; assay: MIC, standard broth micro-dilution assay
Experimental: as §1

[19] = system: Staphylococcus haemolyticus 415; assay: MIC, standard broth micro-dilution assay
Experimental: as §1

[20] = system: Staphylococcus aureus 491; assay: MIC, standard broth micro-dilution assay
Experimental: as §1

[21] = system: Streptococcus pneumoniae P1; assay: MIC, standard broth micro-dilution assay
Experimental: as §1

[22] = system: Pedicoccus acidilacti; assay: MIC, agar dilution on brain-heart infusion agar; settings: Pedioccccus acidilacti (mean of 10)
[23] = system: Pediococcus pentosaceus; assay: MIC, agar dilution on brain-heart infusion agar; settings: Pediococcus pentosaceus (mean of 2)
[24] = system: Leuconostoc lactis; assay: MIC, agar dilution on brain-heart infusion agar; settings: Leuconostoc lactis (mean of 2)
[25] = system: Leuconostoc mesenteroides; assay: MIC, agar dilution on brain-heart infusion agar; settings: Leuconostoc mesenteroides (mean of 4)
[26] = system: Lactobacillus confusus; assay: MIC, agar dilution on brain-heart infusion agar

Compound	MIC [1] [µg/mL]	MIC [2] [µg/mL]	MIC [3] [µg/mL]	MIC [4] [µg/mL]	MIC [5] [µg/mL]	MIC [6] [µg/mL]	MIC [7] [µg/mL]	MIC [8] [µg/mL]	MIC [9] [µg/mL]	MIC [10] [µg/mL]	MIC [11] [µg/mL]	MIC [12] [µg/mL]	MIC [13] [µg/mL]	MIC [14] [µg/mL]	MIC [15] [µg/mL]	MIC [16] [µg/mL]	MIC [17] [µg/mL]	MIC [18] [µg/mL]	MIC [19] [µg/mL]	MIC [20] [µg/mL]	further results
2-[4-chlorophenyl]-6-benzoxazolemethyl [Compound 116]	1	0.5	≤ 0.06	0.25	4	–	–	–	–	–	–	–	–	–	–	–	–	–	–	–	–
4-[2-[2-thiopropyl]ethoxy]benzyl [Compound 134]	2	2	0.25	1	4	–	–	–	–	–	–	–	–	–	–	–	–	–	–	–	–
4-[2-chloro-6-fluorobenzyloxy]benzyl [Compound 80]	1	1	≤ 0.06	≤ 0.06	≤ 0.06	–	–	–	–	–	–	–	–	–	–	–	–	–	–	–	–
CNC(CC(C)C)C(=O)NC1C(=O)NC(CC(N)=O)C(=O)NC2C(=O)NC3C(=O)NC(C(=O)NC(C(=O)O)c4cc(O)cc(O)c4-c4cc3ccc4O)C(OC3CC(C)(N)C(O)C(C)O3)c3ccc(c(Cl)c3)Oc3cc2cc(c3OC2OC(CO)C(O)C(O)C2OC2CC(C)(NCc3c(O)ccc4ccccc34)C(O)C(C)O2)Oc2ccc(cc2Cl)C1O (centres unmarked) [Compound 44]	0.25 (≈ 0.143 µM)	0.25 (≈ 0.143 µM)	≤ 0.06	0.125 (≈ 0.0715 µM)	0.5 (≈ 0.286 µM)	≤ 0.06	8 (≈ 4.57 µM)	> 64	> 64	0.25 (≈ 0.143 µM)	1 (≈ 0.572 µM)	≤ 0.06	≤ 0.06	0.25 (≈ 0.143 µM)	≤ 0.06	≤ 0.06	0.5 (≈ 0.286 µM)	2 (≈ 1.14 µM)	4 (≈ 2.29 µM)	–	–
CNC(CC(C)C)C(=O)NC1C(=O)NC(CC(N)=O)C(=O)NC2C(=O)NC3C(=O)NC(C(=O)NC(C(=O)O)c4cc(O)cc(O)c4-c4cc3ccc4O)C(OC3CC(C)(N)C(O)C(C)O3)c3ccc(c(Cl)c3)Oc3cc2cc(c3OC2OC(CO)C(O)C(O)C2OC2CC(C)(NCc3cc(-c4ccccc4)nc4ccc(OC)cc34)C(O)C(C)O2)Oc2ccc(cc2Cl)C1O (centres unmarked) [Compound 45, 4-[2-phenyl-6-methoxy]quinoylmethyl]	0.5 (≈ 0.272 µM)	1 (≈ 0.544 µM)	0.125 (≈ 0.0679 µM)	0.25 (≈ 0.136 µM)	0.5 (≈ 0.272 µM)	≤ 0.06	1 (≈ 0.544 µM)	> 64	> 64	1 (≈ 0.544 µM)	16 (≈ 8.7 µM)	0.5 (≈ 0.272 µM)	≤ 0.06	2 (≈ 1.09 µM)	0.25 (≈ 0.136 µM)	0.25 (≈ 0.136 µM)	8 (≈ 4.35 µM)	16 (≈ 8.7 µM)	8 (≈ 4.35 µM)	1 (≈ 0.544 µM)	MIC [21]: ≤ 0.06 µg/mL
CNC(CC(C)C)C(=O)NC1C(=O)NC(CC(N)=O)C(=O)NC2C(=O)NC3C(=O)NC(C(=O)NC(C(=O)O)c4cc(O)cc(O)c4-c4cc3ccc4O)C(OC3CC(C)(N)C(O)C(C)O3)c3ccc(c(Cl)c3)Oc3cc2cc(c3OC2OC(CO)C(O)C(O)C2OC2CC(C)(NCc3ccc(C(c4ccccc4)c4ccccc4)cc3)C(O)C(C)O2)Oc2ccc(cc2Cl)C1O (centres unmarked) [Compound 46, 4-diphenylmethylbenzyl]	2 (≈ 1.08 µM)	2 (≈ 1.08 µM)	1 (≈ 0.541 µM)	0.5 (≈ 0.27 µM)	0.25 (≈ 0.135 µM)	≤ 0.06	0.5 (≈ 0.27 µM)	> 64	> 64	1 (≈ 0.541 µM)	2 (≈ 1.08 µM)	1 (≈ 0.541 µM)	0.5 (≈ 0.27 µM)	2 (≈ 1.08 µM)	2 (≈ 1.08 µM)	2 (≈ 1.08 µM)	2 (≈ 1.08 µM)	2 (≈ 1.08 µM)	2 (≈ 1.08 µM)	2 (≈ 1.08 µM)	MIC [21]: ≤ 0.06 µg/mL
CNC(CC(C)C)C(=O)NC1C(=O)NC(CC(N)=O)C(=O)NC2C(=O)NC3C(=O)NC(C(=O)NC(C(=O)O)c4cc(O)cc(O)c4-c4cc3ccc4O)C(OC3CC(C)(N)C(O)C(C)O3)c3ccc(c(Cl)c3)Oc3cc2cc(c3OC2OC(CO)C(O)C(O)C2OC2CC(C)(NCc3ccc(Cc4ccccc4)cc3)C(O)C(C)O2)Oc2ccc(cc2Cl)C1O (centres unmarked) [Compound 50, 4-benzylbenzyl]	–	2 (≈ 1.13 µM)	≤ 0.06	0.25 (≈ 0.141 µM)	1 (≈ 0.564 µM)	≤ 0.06	0.25 (≈ 0.141 µM)	> 64	> 64	0.5 (≈ 0.282 µM)	0.5 (≈ 0.282 µM)	≤ 0.06	≤ 0.06	1 (≈ 0.564 µM)	–	–	0.5 (≈ 0.282 µM)	0.5 (≈ 0.282 µM)	1 (≈ 0.564 µM)	0.5 (≈ 0.282 µM)	MIC [21]: ≤ 0.06 µg/mL; MIC [22]: 51 µg/mL (≈ 28.8 µM); MIC [23]: 64 µg/mL (≈ 36.1 µM); MIC [24]: 64 µg/mL (≈ 36.1 µM); MIC [25]: 64 µg/mL (≈ 36.1 µM); MIC [26]: 64 µg/mL (≈ 36.1 µM)
CNC(CC(C)C)C(=O)NC1C(=O)NC(CC(N)=O)C(=O)NC2C(=O)NC3C(=O)NC(C(=O)NC(C(=O)O)c4cc(O)cc(O)c4-c4cc3ccc4O)C(OC3CC(C)(N)C(O)C(C)O3)c3ccc(c(Cl)c3)Oc3cc2cc(c3OC2OC(CO)C(O)C(O)C2OC2CC(C)(NCc3ccc(C(O)c4ccccc4)cc3)C(O)C(C)O2)Oc2ccc(cc2Cl)C1O (stereo not drawn) [Compound 109, 4-[alpha-hydroxybenzyl]benzyl]	0.25 (≈ 0.14 µM)	0.5 (≈ 0.28 µM)	≤ 0.06	≤ 0.06	≤ 0.06	≤ 0.06	0.25 (≈ 0.14 µM)	–	32 (≈ 17.9 µM)	1 (≈ 0.559 µM)	1 (≈ 0.559 µM)	≤ 0.06	≤ 0.06	≤ 0.06	≤ 0.06	≤ 0.06	0.25 (≈ 0.14 µM)	1 (≈ 0.559 µM)	4 (≈ 2.24 µM)	0.25 (≈ 0.14 µM)	–
CNC(CC(C)C)C(=O)NC1C(=O)NC(CC(N)=O)C(=O)NC2C(=O)NC3C(=O)NC(C(=O)NC(C(=O)O)c4cc(O)cc(O)c4-c4cc3ccc4O)C(OC3CC(C)(N)C(O)C(C)O3)c3ccc(c(Cl)c3)Oc3cc2cc(c3OC2OC(CO)C(O)C(O)C2OC2CC(C)(NCc3ccc4cc(C)ccc4c3)C(O)C(C)O2)Oc2ccc(cc2Cl)C1O (centres unmarked) [Compound 189]	–	–	≤ 0.06	–	1 (≈ 0.573 µM)	–	–	–	> 64	–	–	–	–	–	–	–	–	–	–	–	–
CNC(CC(C)C)C(=O)NC1C(=O)NC(CC(N)=O)C(=O)NC2C(=O)NC3C(=O)NC(C(=O)NC(C(=O)O)c4cc(O)cc(O)c4-c4cc3ccc4O)C(OC3CC(C)(N)C(O)C(C)O3)c3ccc(c(Cl)c3)Oc3cc2cc(c3OC2OC(CO)C(O)C(O)C2OC2CC(C)(NCc3ccc(NC(=O)c4cccc(F)c4)cc3)C(O)C(C)O2)Oc2ccc(cc2Cl)C1O (centres unmarked) [Compound 194, 4-[(3-fluorobenzoyl)amino]benzyl]	–	–	≤ 0.06	–	2 (≈ 1.1 µM)	–	–	–	32 (≈ 17.6 µM)	–	–	–	–	–	–	–	–	–	–	–	–
CNC(CC(C)C)C(=O)NC1C(=O)NC(CC(N)=O)C(=O)NC2C(=O)NC3C(=O)NC(C(=O)NC(C(=O)O)c4cc(O)cc(O)c4-c4cc3ccc4O)C(OC3CC(C)(N)C(O)C(C)O3)c3ccc(c(Cl)c3)Oc3cc2cc(c3OC2OC(CO)C(O)C(O)C2OC2CC(C)(NCCCCCCCCOc3ccc(Oc4ccccc4)cc3)C(O)C(C)O2)Oc2ccc(cc2Cl)C1O (centres unmarked) [Compound 202]	–	–	1 (≈ 0.529 µM)	4 (≈ 2.12 µM)	8 (≈ 4.24 µM)	–	–	–	–	–	–	–	–	–	–	–	–	–	–	8 (≈ 4.24 µM)	–
CNC(CC(C)C)C(=O)NC1C(=O)NC(CC(N)=O)C(=O)NC2C(=O)NC3C(=O)NC(C(=O)NC(C(=O)O)c4cc(O)cc(O)c4-c4cc3ccc4O)C(OC3CC(C)(N)C(O)C(C)O3)c3ccc(c(Cl)c3)Oc3cc2cc(c3OC2OC(CO)C(O)C(O)C2OC2CC(C)(NCc3ccc(-c4ccccc4C)cc3)C(O)C(C)O2)Oc2ccc(cc2Cl)C1O (centres unmarked) [Compound 209]	–	–	≤ 0.06	–	1 (≈ 0.564 µM)	–	–	–	–	–	–	–	–	–	–	–	0.125 (≈ 0.0705 µM)	–	–	–	–
